What all share (format): in vivo, human
The subject of series [1] is Persons with SCI. The series can be described thus: Heart rate and blood pressure monitoring after IV bolus (Example 3). The note with it: IV bolus 2 mg neostigmine alone or with 0.4 mg glycopyrrolate. On the procedure: (§1) Thirteen (13) persons with SCI (5 quadriplegics, 8 paraplegics) with a mean age of 46 years (range 25-69) and mean duration of injury of 16 years (range 1-31) were treated. None of the subjects had known heart disease and/or history of arrhythmias.
(§2) On separate days, subjects were given by IV bolus either (i) 2 mg neostigmine alone, (ii) a combination of 2 mg neostigmine and 0.4 mg glycopyrrolate, or (iii) normal saline. Subjects were blinded to the type of infusion being delivered. The effect of these infusions on bowel evacuation was assessed semi-quantitatively on a scale of 0 (no evacuation) to 4+(complete evacuation) using video fluoroscopy after rectal instillation of a barium-oatmeal paste having a consistency similar to that of stool. Blood pressure, heart rate and other vital signs were monitored in each subject. In addition, airway resistances were determined in each subject using the forced oscillation technique (as described, for example, in Goldman, Pulm. Pharmacol. Ther., 14(5):341-350, 2001). Total airway resistance was determined using 5 Hz forced oscillations, and central airway resistance was determined using 20 Hz forced oscillations.

Series [2] has as its system Persons with SCI. The series can be described thus: Bowel evacuation score by video fluoroscopy after IV bolus in thirteen subjects (Example 3). The note with it: IV bolus 2 mg neostigmine alone or with 0.4 mg glycopyrrolate. On the procedure: as §1, §2
This response received a 0 (zero) bowel evacuation score. FIGS. 1B-1E show progressively increasing bowel evacuation responses in different subjects. The responses in FIGS. 1B-1E correspond to bowel evacuation scores of 1+, 2+, 3+, and 4+, respectively.

Series [3] concerns Persons with SCI. The series can be described thus: Airway resistance by forced oscillation technique after IV bolus (Example 3). The note with it: IV bolus 2 mg neostigmine. Here is the method:
as §1, §2

SMILES strings stand for the structures.

`CN(C)C(=O)Oc1cccc([N+](C)(C)C)c1` [neostigmine]: in the series with Persons with SCI [1], the “change in blood pressure” value was “No change”. Further, the “mean lowest heart rate measured” value with Persons with SCI [1] (p=0.02) is listed as “about 49 BMP”. Further, in the series on Persons with SCI [2], the “subjects with prompt and complete evacuation” value worked out at 57%; the “time of evacuation post infusion (mean)” value is 11 min. Further, the “mean bowel evacuation score” value in the series with Persons with SCI [2] (scale 0 (no evacuation) to 4+ (complete evacuation), thirteen subjects) was “about 2.29”. The “total airway resistance, increase over baseline” value in the series with Persons with SCI [3] (5 Hz forced oscillations) was “approximately 25.5%”. Further, the “central airway resistance, increase over baseline” value in the series with Persons with SCI [3] (20 Hz forced oscillations) is listed as “approximately 18.4%”.

For the origin of these results see patent US20190029989A1, “BOWEL CARE USING IONTOPHORESIS” (priority 2016, published 2019).
